Here are results for 21 compounds from patent US20240279233A1, “MACROCYCLIC TAK1 INHIBITORS” (Aqilion AB, priority 2021, published 2024).

The conditions of data set [1]: amide bond, 14-membered ring.
Data set [2] can be described thus: Solubility assay in phosphate buffer. The following applies: phosphate buffer 100 mM, pH 7.4, room temperature, 20-24 h, LC-UV.
Protocol: The aqueous solubility of selected example compounds was determined as follows; 6 μL of DMSO stock solution of the selected example was added to 594 μL phosphate buffer (100 mM, pH 7.4). The resulting mixture was equilibrated over night (20-24 h, Alligator Shaker, room temperature). The mixture was then filtered (Millex LH 0.45 μm) and the concentration/solubility was determined by LC-UV quantification.
Data set [3] deals with human recombinant TAK1-TAB1 Kinase (TAK1 (1-303) and TAB1 (437-end)) (Homo sapiens (Human), UniProt O43318). The data set is described as follows: TAK1 biochemical ADP-Glo kinase assay. Conditions: MBP substrate. Put shortly:
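Inhibition of human recombinant TAK1-TAB1 kinase was measured with a Promega ADP-Glo luminescence assay in 384-well plates. Compounds in 5% DMSO were pre-incubated 10 min with 2 μl TAK1-TAB1 (7.5 ng/μl) in buffer of Tris pH 7.5, MgCl2, DTT and BSA. MBP substrate and ATP were then added for 1 hour at room temperature. ADP-Glo reagent and kinase detection substrate followed, luminescence was read on an Envision, and IC50 came from non-linear regression.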
A general note: In ADP-Glo the light output rises with the ADP produced.

Setting [4] is: phosphate buffer, pH 7.4, aqueous buffer, kinetic from dmso stock, Solubility (μM).
The mark [5] stands for this setting: 10 μM ATP, read-out: TAK1 Mean IC50 (nM) @ 10 μM ATP.
The mark [6] stands for this setting: 1 mM ATP, read-out: TAK1 Mean IC50 (nM) @ 1 mM ATP.

≈ marks a conversion by molar mass, not a printed value. Where “and” joins values, the source holds several entries; their conditions need not be identical. Equal values may be shown once. Read-outs that look alike come from different tables or passages of the source.

human recombinant TAK1-TAB1 Kinase (TAK1 (1-303) and TAB1 (437-end)), sequence (O43318 other isoform, or with tags, fused parts or gaps): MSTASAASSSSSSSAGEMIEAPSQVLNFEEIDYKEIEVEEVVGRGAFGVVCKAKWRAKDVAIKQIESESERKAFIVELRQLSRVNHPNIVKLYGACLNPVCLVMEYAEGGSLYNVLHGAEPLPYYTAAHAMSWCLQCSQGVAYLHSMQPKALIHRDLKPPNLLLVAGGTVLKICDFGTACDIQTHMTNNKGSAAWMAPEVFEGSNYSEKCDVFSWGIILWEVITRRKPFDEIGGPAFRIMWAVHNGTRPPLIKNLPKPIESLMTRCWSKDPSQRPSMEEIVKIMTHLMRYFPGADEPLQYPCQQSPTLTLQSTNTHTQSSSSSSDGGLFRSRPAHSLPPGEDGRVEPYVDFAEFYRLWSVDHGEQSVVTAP

As for `CC(=O)c1cc(C(=O)N(C)C)c2c(c1)nc1n2[C@H](C)CCCCNC(=O)c2cccc(c2)C(=O)N1`, the ring closure, yield after HPLC in data set [1] (from CC(=O)c1cc(C(=O)N(C)C)c2c(c1)nc(NC(=O)c1cccc(C(=O)O)c1)n2[C@H](C)CCCCN, HATU/DIEA, THF, 0.49 mM, 25.0 °C, 120.0 h) amounted to 34%.
In data set [1] (from CC(CCCCN)n1c(NC(=O)c2cccc(C(=O)O)c2)nc2cccc(-c3ccc[nH]c3=O)c21, TCFH/NMI, DMF, 3.6 mM, 1.0 h), `CC1CCCCNC(=O)c2cccc(c2)C(=O)Nc2nc3cccc(-c4ccc[nH]c4=O)c3n21` (centres unmarked) registered a ring closure, yield after HPLC of 21%.
`CC1CCCCNC(=O)c2cccc(c2)C(=O)Nc2nc3cccc(C(=O)N(C)C)c3n21` (centres unmarked): in data set [1] (from CC(CCCCN)n1c(NC(=O)c2cccc(C(=O)O)c2)nc2cccc(C(=O)N(C)C)c21, TCFH/NMI, MeCN/DMF, 1.6 mM, 1.0 h), the ring closure, yield after HPLC worked out at 12%.
Turning to `CN(C)C(=O)c1cccc2nc3n(c12)C1(CCCCNC(=O)c2cccc(c2)C(=O)N3)CC1`, the ring closure, yield after HPLC in data set [1] (from CN(C)C(=O)c1cccc2nc(NC(=O)c3cccc(C(=O)O)c3)n(C3(CCCCN)CC3)c12, TCFH/NMI, MeCN/DMF, 0.31 mM, 25.0 °C, 16.0 h) was found to be 18%.
`CN1CCN(Cc2ccc3c(c2)nc2n3CCCCCNC(=O)c3cc(ccc3F)C(=O)N2)CC1` displayed a ring closure, yield after HPLC in data set [1] (from CN1CCN(Cc2ccc3c(c2)nc(NC(=O)c2ccc(F)c(C(=O)O)c2)n3CCCCCN)CC1, TCFH/NMI, DMF/MeCN, 2.2 mM, 25.0 °C, 2.0 h) of 16%.
As for `C[C@@H]1CCCCNC(=O)c2cccc(c2)C(=O)Nc2nc3ccc(Cl)c(C(=O)N(C)C)c3n21`, the ring closure, yield after HPLC in data set [1] (from C[C@H](CCCCN)n1c(NC(=O)c2cccc(C(=O)O)c2)nc2ccc(Cl)c(C(=O)N(C)C)c21, HATU/DIEA, THF, 0.5 mM, 60.0 °C, 16.0 h) is 5.3% and 5.7%.
For `C[C@H]1CCCCNC(=O)c2cccc(c2)C(=O)Nc2nc3ccc(Cl)c(C(=O)N(C)C)c3n21`, the ring closure, yield after HPLC in data set [1] (from C[C@@H](CCCCN)n1c(NC(=O)c2cccc(C(=O)O)c2)nc2ccc(Cl)c(C(=O)N(C)C)c21, HATU/DIEA, THF, 0.5 mM, 60.0 °C, 16.0 h) was 7.1% and 6.3%.
Compound `Cc1noc(-c2cccc3nc4n(c23)[C@@H](C)CCCCNC(=O)c2cccc(c2)C(=O)N4)n1` displayed a ring closure, yield after HPLC in data set [1] (from Cc1noc(-c2cccc3nc(NC(=O)c4cccc(C(=O)O)c4)n([C@@H](C)CCCCN)c23)n1, TCFH/NMI, MeCN, 0.23 mM, 25.0 °C, 16.0 h) of 92%.
Consider `Cc1ccc2c(c1)nc1n2CCCCCNC(=O)c2cccc(c2)C(=O)N1` [Example 4, 1^5-methyl-1^1H-2,6-diaza-1(2,1)-benzo[d]imidazola-4(1,3)-benzenacycloundecaphane-3,5-dione], for which the solubility in data set [2] (setting [4]) is 0.2 µM (≈ 0.0725 µg/mL). Moreover, the concentration for half-maximal inhibition (IC50) in data set [3] (setting [5]) is 7 nM. The compound further displayed a ring closure, yield after HPLC in data set [1] (from Cc1ccc2c(c1)nc(NC(=O)c1cccc(C(=O)O)c1)n2CCCCCN, HATU/TEA, MeCN, 50.0 °C, 16.0 h, 2 steps) of 39%.
Consider `O=C1NCCOCCn2c(nc3ccccc32)NC(=O)c2cccc1c2` [Example 5, 1^1H-9-oxa-2,6-diaza-1(2,1)-benzo[d]imidazola-4(1,3)-benzenacycloundecaphane-3,5-dione], for which the “solubility” value in data set [2] came out at 15.2 µM (≈ 5.33 µg/mL). Also, the IC50 in data set [3] (setting [5]) stood at 11 nM; in data set [3] (setting [6]), 247 nM. The compound also came in with a ring closure, yield after HPLC in data set [1] (from NCCOCCn1c(NC(=O)c2cccc(C(=O)O)c2)nc2ccccc21, HATU/TEA, MeCN, 14.0 mM, 50.0 °C, 16.0 h, 2 steps) of 16%.
Take `CC1CCCCNC(=O)c2cccc(c2)C(=O)Nc2nc3ccccc3n21` (centres unmarked) [Example 6, 11-methyl-1^1H-2,6-diaza-1(2,1)-benzo[d]imidazola-4(1,3)-benzenacycloundecaphane-3,5-dione]: in data set [2] (setting [4]), the solubility was 2.5 µM (≈ 0.906 µg/mL). Moreover, the IC50 in data set [3] (setting [5]) is 5 nM. This compound also returned a ring closure, yield after HPLC in data set [1] (from CC(CCCCN)n1c(NC(=O)c2cccc(C(=O)O)c2)nc2ccccc21, HATU/TEA, MeCN, 4.3 mM, 50.0 °C, 16.0 h, 2 steps) of 39%.
In data set [2] (setting [4]), `CN1CCN(Cc2cc(C(=O)N(C)C)c3c(c2)nc2n3CCCCCNC(=O)c3cccc(c3)C(=O)N2)CC1` [Example 27, (E)-N,N-dimethyl-1^5-((4-methylpiperazin-1-yl)methyl)-3,5-dioxo-1^2,1^3-dihydro-1^1H-2,6-diaza-1(2,1)-benzo[d]imidazola-4(1,3)-benzenacycloundecaphane-1^7-carboxamide] displayed a solubility of 61.3 µM (≈ 32.6 µg/mL). For the same compound, the concentration for half-maximal inhibition (IC50) in data set [3] (setting [5]) turned out to be 8 nM. This compound displayed a ring closure, yield after HPLC in data set [1] (from CN1CCN(Cc2cc(C(=O)N(C)C)c3c(c2)nc(NC(=O)c2cccc(C(=O)O)c2)n3CCCCCN)CC1, HATU/DIEA, THF, then DMF, 0.46 mM, 40.0 °C, 18.0 h) of 10%.
Regarding `COc1ncccc1-c1cccc2nc3n(c12)CCCCCNC(=O)c1cccc(c1)C(=O)N3` [Example 28, (E)-1^7-(2-methoxypyridin-3-yl)-1^2,1^3-dihydro-1^1H-2,6-diaza-1(2,1)-benzo[d]imidazola-4(1,3)-benzenacycloundecaphane-3,5-dione], in data set [2] (setting [4]), the solubility was found to be 1.1 µM (≈ 0.501 µg/mL). Moreover, the IC50 in data set [3] (setting [5]) worked out at 366 nM. The compound also registered a ring closure, yield after HPLC in data set [1] (from COc1ncccc1-c1cccc2nc(NC(=O)c3cccc(C(=O)O)c3)n(CCCCCN)c12, HATU/DIEA, DMF, 0.49 mM, 16.0 h) of 19%.
For `CC1CCCCNC(=O)c2cccc(c2)C(=O)Nc2nc3cccc(-c4ccc[n+]([O-])c4)c3n21` (centres unmarked) [Example 33, (E)-3-(11-methyl-3,5-dioxo-1^2,1^3-dihydro-1^1H-2,6-diaza-1(2,1)-benzo[d]imidazola-4(1,3)-benzenacycloundecaphane-1^7-yl)pyridine 1-oxide], in data set [3] (setting [5]), the IC50 was found to be 8 nM. Besides, the ring closure, yield after HPLC in data set [1] (from CC(CCCCN)n1c(NC(=O)c2cccc(C(=O)O)c2)nc2cccc(-c3ccc[n+]([O-])c3)c21, HATU/DIEA, THF, 0.46 mM, 32.0 h, 2 steps) is 7%.
As to `C[C@@H]1CCCCNC(=O)c2cccc(c2)C(=O)Nc2nc3cccc(S(=O)(=O)N(C)C)c3n21` [Example 46, (R,E)-N,N,11-trimethyl-3,5-dioxo-1^2,1^3-dihydro-1^1H-2,6-diaza-1(2,1)-benzo[d]imidazola-4(1,3)-benzenacycloundecaphane-1^7-sulfonamide], in data set [2] (setting [4]), the solubility was determined as 10 µM (≈ 4.7 µg/mL). The half-maximal inhibitory concentration (IC50) in data set [3] (setting [5]) was found to be 2 nM. In addition, the ring closure, yield after HPLC in data set [1] (from C[C@H](CCCCN)n1c(NC(=O)c2cccc(C(=O)O)c2)nc2cccc(S(=O)(=O)N(C)C)c21, HATU/DIEA, THF, 0.5 mM, 50.0 °C, 16.0 h) stood at 24%.
In turn, `Cc1nnc(-c2cccc3nc4n(c23)[C@H](C)CCCCNC(=O)c2cccc(c2)C(=O)N4)n1C` [Example 57, (R,E)-1^7-(4,5-dimethyl-4H-1,2,4-triazol-3-yl)-11-methyl-1^2,1^3-dihydro-1^1H-2,6-diaza-1(2,1)-benzo[d]imidazola-4(1,3)-benzenacycloundecaphane-3,5-dione] came in with a solubility in data set [2] (setting [4]) of 95 µM (≈ 43.5 µg/mL). The IC50 in data set [3] (setting [5]) came out at 3 nM; in data set [3] (setting [6]), 6 nM. Besides, the ring closure, yield after HPLC in data set [1] (from Cc1nnc(-c2cccc3nc(NC(=O)c4cccc(C(=O)O)c4)n([C@H](C)CCCCN)c23)n1C, HATU/DIEA, THF, 0.5 mM, 50.0 °C, 23.0 h) turned out to be 31%.
As for `CN1CCN(C(=O)c2ccc3nc4n(c3c2)CCCCCNC(=O)c2cccc(c2)C(=O)N4)CC1` [Example 97, (E)-1^6-(4-methylpiperazine-1-carbonyl)-1^2,1^3-dihydro-1^1H-2,6-diaza-1(2,1)-benzo[d]imidazola-4(1,3)-benzenacycloundecaphane-3,5-dione], the solubility in data set [2] (setting [4]) was 5 µM (≈ 2.37 µg/mL). Also, the IC50 in data set [3] (setting [5]) amounted to 4 nM.
In the same order, the values of `O=C1/N=C2\Nc3ccc(C(=O)N4CCN(C5COC5)CC4)cc3N2CCCCCNC(=O)c2cccc1c2` [Example 98, (E)-1^6-(4-(oxetan-3-yl)piperazine-1-carbonyl)-1^2,1^3-dihydro-1^1H-2,6-diaza-1(2,1)-benzo[d]imidazola-4(1,3)-benzenacycloundecaphane-3,5-dione] are 4.7 µM (≈ 2.43 µg/mL) and 5 nM.
Turning to `O=C1/N=C2\Nc3ccc(C(=O)N4CCNCC4)cc3N2CCCCCNC(=O)c2cccc1c2` [Example 100, (E)-1^6-(piperazine-1-carbonyl)-1^2,1^3-dihydro-1^1H-2,6-diaza-1(2,1)-benzo[d]imidazola-4(1,3)-benzenacycloundecaphane-3,5-dione], the solubility in data set [2] (setting [4]) was 83.1 µM (≈ 38.3 µg/mL). Besides, the IC50 in data set [3] (setting [5]) was found to be 2 nM.
In the same order, the values of `CN1CCN(Cc2ccc3c(c2)N2CCCCCNC(=O)c4cccc(c4)C(=O)/N=C/2N3)CC1` [Example 101, (E)-1^6-((4-methylpiperazin-1-yl)methyl)-1^2,1^3-dihydro-1^1H-2,6-diaza-1(2,1)-benzo[d]imidazola-4(1,3)-benzenacycloundecaphane-3,5-dione] are 20.8 µM (≈ 9.58 µg/mL) and 8 nM.
Turning to `C[C@H]1CCCCNC(=O)c2cccc(c2)C(=O)/N=C2\Nc3cc(C(C)(C)O)cc(C(=O)N(C)C)c3N21` [Example 123, (S,E)-1^5-(2-hydroxypropan-2-yl)-N,N,11-trimethyl-3,5-dioxo-1^2,1^3-dihydro-1^1H-2,6-diaza-1(2,1)-benzo[d]imidazola-4(1,3)-benzenacycloundecaphane-1^7-carboxamide], the solubility in data set [2] (setting [4]) turned out to be 90 µM (≈ 44.2 µg/mL). Besides, the results for the IC50 in data set [3] (setting [5]) and in data set [3] (setting [6]) were 4 nM and 11 nM, respectively.

In general, solubility refers to the concentration that dissolves in the medium under given conditions. A higher solubility goes with much dissolved substance. Broadly, the IC50 is the concentration that gives 50% inhibition.
